Laboratory results reported in paper PMC8159387 (Chemical Science, 2020).
Square brackets hold non-standard residues; d marks the D form. Peptide text beside a SMILES is read from it. * marks the point of attachment. CH2CH2OBz(4-tBu) = CC(C)(C)c1ccc(C(=O)OCC*)cc1; dDab = NCC[C@@H](N)C(=O)O; Dab = NCC[C@H](N)C(=O)O; Mpa = O=C(O)CCS

Tested on: E. coli, P. aeruginosa, A. calcoaceticus and S. aureus
Test: MIC and MBC summarised across the test species
Type: cell-based
Conditions: species not given

| Structure (SMILES) | lowest MIC values of the CLipPA analogues [μM] |
| --- | --- |
| CC(C)C[C@H](NC(=O)[C@H](CCN)NC(=O)[C@H](CCN)NC(=O)[C@@H](Cc1ccccc1)NC(=O)[C@H](CC(C)C)NC(=O)[C@H](CCN)NC(=O)[C@H](CCN)NC(=O)[C@@H](CCN)NC(=O)[C@@H](N)CSCCOC(=O)c1ccc(C(C)(C)C)cc1)C(N)=O [Peptide 12f] (H-C(CH2CH2OBz(4-tBu))[dDab][Dab][Dab]L[dF][Dab][Dab]L-NH2) | 8 |
| CC(C)C[C@H](NC(=O)[C@H](CCN)NC(=O)[C@H](CCN)NC(=O)[C@@H](Cc1ccccc1)NC(=O)[C@H](CC(C)C)NC(=O)[C@H](CCN)NC(=O)[C@H](CCN)NC(=O)[C@@H](CCN)NC(=O)CCSCCOC(=O)c1ccc(C(C)(C)C)cc1)C(N)=O [Peptide 13f] ([Mpa](CH2CH2OBz(4-tBu))[dDab][Dab][Dab]L[dF][Dab][Dab]L-NH2) | 8 |
